In patent US20240299376A1, “METHOD OF TREATING A CONDITION USING A […] EFFECTIVE DOSE OF 1-(1-OXO-1,2-DIHYDROISOQUINOLIN-5-YL)-5-(TRIFLUOROMETHYL)-N-(2-(TRIFLUOROMETHYL)PYRIDIN-4-YL)-1H-PYRAZOLE-4-CARBOXAMIDE” (Janssen Pharmaceutica NV, priority 2021, published 2024):

How the values were obtained:
[1] = tested on: OCI-LY10 human DLBCL xenografts; assay: Antitumor efficacy in established OCI-LY10 human DLBCL xenografts; assay type: in vivo, NSG mice; settings: 3.5 weeks
Experimental: Tumor volume was calculated using the formula: tumor volume (mm^3)=(Dxd^2/2); where ‘D’ represents the larger diameter, and ‘d’ the smaller diameter of the tumor as determined by caliper measurements. Tumor volume data was graphically represented as the mean tumor volume±SEM.
Percent tumor growth inhibition (TGI) was defined as the difference between mean tumor volumes of the treated and control group, calculated as
where TVc is the mean tumor volume of a given control group and TVt is the mean tumor volume of the treatment group. As defined by National Cancer Institute criteria, ≥60% TGI is considered biologically significant.
Group tumor volumes are graphed as the mean+SEM. Mice were implanted SC on the right flank on Day 0.
OCY-LY10 cells were maintained at 37° C. in a humidified atmosphere (5% CO2, 95% air), in RPMI-1640 medium with GlutaMAX™, supplemented with 10% Fetal Bovine Serum (Heat Inactivated at 57° C.) and 1% Penicillin-Streptomycin. Each mouse received 1×10^6 OCI-LY10 cells in serum-free RPMI-1640 medium with Matrigel in 1:1 ratio in a total volume of 0.2 mL. Cells were implanted SC in the right flank using a 1 mL syringe and a 26-gauge needle. The day of tumor implantation was designated as Day 0.
For study 4, study animals were randomly assigned into treatment groups, when the mean OCI-LY10 tumor volume reached 169 mm^3 (Day 15 post-tumor cell implantation). Treatment was initiated the day after randomization (Day 16). Treatment for the antitumor efficacy study lasted for 24 days until Day 40, when most animals in the Vehicle control group reached ethical tumor volume limits. […] Blood was collected from the retro-orbital sinus and submitted for bioanalytical analysis.

[2] = tested on: HBL1 (CD79b/Myd88/A20 mut); assay: Anti-proliferative activity, DLBCL cell line panel; assay type: cell-based; settings: HBL1, 192 h; antiproliferation after 8 days of treatment
Experimental: (§1) Four ABC-DLBCL cell lines with activating mutations in the canonical NFκB pathway were evaluated (OCI-LY3 (CARD11, MYD88 & A20 mutations), TMD8, HBL1, and OCI-LY10 (CD79B & MYD88 mutations)), which are generally sensitive to NF-κB pathway inhibition. None of the GCB-DLBCL cell lines harbor mutations in the NF-κB pathway. The GCB-DLBCL cell lines served as a negative control to exclude compounds with general cytotoxic effects.
(§2) At concentrations ≥20 μM general cytotoxicity was observed.

[3] = tested on: OCI-LY3 (Myd88/CARD11 A20 mut); assay: Anti-proliferative activity, DLBCL cell line panel; assay type: cell-based; settings: Homo sapiens
Experimental: as §1, §2

OCI-Ly1 (no NF-κB mut) = assay: Anti-proliferative activity, DLBCL cell line panel; assay type: cell-based; settings: Homo sapiens, OCI-Ly1, 192 h; antiproliferation after 8 days of treatment
Experimental: as §1, §2

OCT-Ly7 (no NF-κB mut) = assay: Anti-proliferative activity, DLBCL cell line panel; assay type: cell-based; settings: 192 h; antiproliferation after 8 days of treatment
Experimental: as §1, §2

SU-DHL4 (no NF-κB mut) = assay: Anti-proliferative activity, DLBCL cell line panel; assay type: cell-based; settings: Homo sapiens, SU-DHL-4, 192 h; antiproliferation after 8 days of treatment
Experimental: as §1, §2

[4] = tested on: TMD8 (CD79b/Myd88/A20 mut); assay: Anti-proliferative activity, DLBCL cell line panel; assay type: cell-based; settings: Homo sapiens, TMD8, 192 h; antiproliferation after 8 days of treatment
Experimental: as §1, §2

[5] = tested on: T cells derived from healthy donors; assay: CyTOF analysis of T cells stimulated with CD3/28; assay type: cell-based, human
Text: After fixation and barcoding, samples were pooled per donor and stained using a panel of 32 metal-labelled antibodies for identification of phenotype and function of immune cell populations and acquired on a CyTOF® C5 system. After debarcoding and normalization, cell populations were either manually gated or clustered by spanning-tree progression of density-normalized events (SPADE) analysis using Cytobank® software.
These observations are consistent with the fluorescence-activated cell sorting (FACS) analysis data.

Single IV dose plasma PK = assay type: in vivo, dog
Experimental: Single intravenous (IV) dose PK was conducted in mice (two strains), rats, monkeys, and dogs at a dose of 1 mg/kg in 70% PEG400 (PEG400/water 70:30) by bolus injection. The time course for plasma sample was optimized to fully characterize the disposition profile in each species. PK analysis was by non-compartmental method.

[6] = 14-day oral toxicity study toxicokinetics in dogs (beagles); assay type: in vivo, dog; settings: for Cmax: female, beagle, dog, in vivo, po, 250 mg/kg/day
Experimental: Repeated-dose PK (toxicokinetics) were obtained as part of the repeated oral dose toleration toxicity studies in rats and dogs.
However, there was no increase in the exposure parameters at 250 mg/kg/day from the first day of dosing until Day 7 when the dose group was terminated.

[7] = Pharmacokinetic modeling and simulations to predict the human dose; settings: corresponds to mouse trough at 10 mg/kg BID after accounting for protein binding difference mice/human
Experimental: According to the tested scenario, the minimum predicted efficacious dose is approximately 110 mg given once daily.
The pharmacokinetic modeling was used based on available non-clinical pharmacokinetic data and allometric scaling. In addition, modeling using GastroPlus and SimCYP was also used to guide PK parameter prediction.

[8] = tested on: phosphorylation of IκBα in OCI-LY3 cells; settings: unstimulated conditions
Text: The phospho-IκBα (pIκBα) signal was quantified as percent of DMSO control and normalized against β-tubulin.

[9] = male, plasma, Dog, beagle, 3M, 1 mg/kg IV in 70% PEG400, mean
[10] = Day 1, 10 to 50 mg/kg/day (5-fold increase in dose)
[11] = Day 1, 10 to 250 mg/kg/day (25-fold increase in dose)

With `O=C(Nc1ccnc(C(F)(F)F)c1)c1cnn(-c2cccc3c(=O)[nH]ccc23)c1C(F)(F)F` [Compound A, 1-(1-oxo-1,2-dihydroisoquinolin-5-yl)-5-(trifluoromethyl)-N-[2-(trifluoromethyl)pyridin-4-yl]-1H-pyrazole-4-carboxamide] the TGI ([1]; 3 mg/kg BID PO, not statistically significant) was 11%, the TGI ([1]; 10 mg/kg BID PO) was 41% and the TGI ([1]; 30 mg/kg BID PO) was 54%. The TGI ([1]; 100 mg/kg BID PO) was 62%, the IC50 [2] was 547 nM and the IC50 ([3]; OCI-Ly3, 192 h, antiproliferation after 8 days of treatment) was 496 nM. The IC50 ([3]; Proliferation, OCI-LY3) was 496 ± 262 nM, the IC50 (OCI-Ly1 (no NF-κB mut)) was > 10 µM and the IC50 (OCT-Ly7 (no NF-κB mut)) was > 10 µM. The IC50 (SU-DHL4 (no NF-κB mut)) was 6 µM, the IC50 [4] was 635 nM and the “generation of Treg cells following CD3/28 stimulation” value ([5]; 4 days, CyTOF) was “dose-dependently inhibited the generation of CD4^+CD25^+CD1271^lowFoxP3^hi cells”. The “number of CD8+ T cells” value ([5]; 4 days, CyTOF) was “no strong effect on the number of CD8^+ T cells was observed”, the “expression of TIM3” value ([5]; CD4+ and CD8+ T cells, CyTOF) was “No decrease” and the “expression of exhaustion markers PD-1, CTLA4, LAG3” value ([5]; CD8+ T cells, CyTOF) was “decreased on CD8^+ T cells”. The “activation of CD8+ T cells” value ([5]; CD69+CD25+ cells following CD3/28 stimulation) was “reduced”, the “CL as fraction of liver blood flow (LBF)” value (Single IV dose plasma PK; dog, LBF 30.9 mL/min/kg) was 3.0% and the AUC(0-inf) (Single IV dose plasma PK; [9]) was 23100 ng·h/mL. For the same compound, the C0 (Single IV dose plasma PK; [9]) was 2070 ng/mL, the clearance (Single IV dose plasma PK; [9]) was 0.772 mL/min/kg and the half-life (Single IV dose plasma PK; [9]) was 1010 min. For the same compound, the Vd (Single IV dose plasma PK; male, plasma, Dog, beagle, 3M, 1 mg/kg IV in 70% PEG400, mean, read-out: Vdss) was 1.01 L/kg, the “increase in AUC0-24h with dose” value [6, 10] was 5.8 fold and the “increase in Cmax with dose” value [6, 10] was 5.5 fold. The “increase in AUC0-24h with dose” value [6, 11] was 23 fold, the “increase in Cmax with dose” value [6, 11] was 20 fold and the “relation of single doses to maximum tolerated dose (MTD)” value ([6]; escalated single oral doses vs MTD upon 14 days of dosing in dogs) was “greater than the maximum tolerated dose (MTD) upon 14 days of dosing in dogs”. For the same compound, the toxicity findings ([6]; female beagles, 10, 50, and 250 mg/kg/day PO for 14 days) was “moribundity and mortality resulted in early termination of the 50 and 250 mg/kg dose groups”, the Cmax [6] was 263,000 ng/mL and the Cmax ([6]; Cmax) was 290 µg/mL. For the same compound, the “Ctrough at steady state targeted in humans” value [7] was 4640 ng/mL and the “inhibition of phospho-IκBα” value [8] was “did not inhibit phospho-IκBα”.
